Values quoted from earlier work, collected in article PMC11125333, “Self-Immolative Domino Dendrimers as Anticancer-Drug Delivery Systems: A Review” (Pharmaceutics, 2024).

Design: method as in PMID 25924099
Details: UV irradiation at 365 nm

Which “effect of UV irradiation on cytotoxicity / cell-killing efficacy” value does the source give for `CC[C@@]1(O)C(=O)OCc2c1cc1n(c2=O)Cc2cc3ccccc3nc2-1` [CAMP, camptothecin] here?
Its value is “did not increase”.
